molecular target: T1, PPARG (peroxisome proliferator activated receptor-gamma), GST-PPARG-LBD (Homo sapiens, UniProt P37231); assay: LanthaScreen TR-FRET PPARG Competitive Binding Assay; set-up: key: “+” indicates the degree of the binding activity, and as the number of “+” increases, the binding activity is stronger; ++: “+” indicates the degree of the binding activity, and as the number of “+” increases, the binding activity is stronger; +++: “+” indicates the degree of the binding activity, and as the number of “+” increases, the binding activity is stronger; ++++: “+” indicates the degree of the binding activity, and as the number of “+” increases, the binding activity is stronger; conditions: degree of binding activity
T1 construct: 15 μL of 5 nM GST-PPARG-LBD and 5 nM Tb-GST-antibody were added; purchased Invitrogen PV4894
T1 sequence (P37231 238-503 limits assumed): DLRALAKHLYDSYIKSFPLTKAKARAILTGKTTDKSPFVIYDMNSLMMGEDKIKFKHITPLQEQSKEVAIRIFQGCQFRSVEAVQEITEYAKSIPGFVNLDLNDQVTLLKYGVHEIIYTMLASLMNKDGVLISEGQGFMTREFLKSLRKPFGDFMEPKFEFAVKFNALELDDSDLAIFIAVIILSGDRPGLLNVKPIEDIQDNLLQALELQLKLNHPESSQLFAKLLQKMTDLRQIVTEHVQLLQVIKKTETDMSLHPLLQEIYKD
Procedure: The following experiment was performed to evaluate the PPARG (peroxisome proliferator activated receptor-gamma) binding capacity and transcriptional activity of the compounds prepared in the examples of the invention. For the experiment, LanthaScreen™ TR-FRET PPARG Competitive Binding Assay Kit (PV4894, Invitrogen) was used according to the manufacturer's instruction. […] The mixture was loaded in a 384-well plate (Greiner, 784075) by 20 μL per well, followed by reaction at room temperature for 1 hour. Upon completion of the reaction, fluorescence value was measured by using Flexstation 3 (Molecular Devices) with time-resolved fluorescence (RFU) mode (excitation 1: 340 nm, emission 1: 518 nm, excitation 2: 340 nm, emission 2: 488 nm, integration delay 50 μs, integration 400 μs). The results were calculated by using 518 nm RFUs/488 nm RFUs ratio. The activity of the compounds of the invention was compared with that of the vehicle, which was calculated by ratio according to the formula [100%−compound of the example ratio/vehicle ratio]. At this time, the binding activity ratio to rosiglitazone was compared.

Compound | Binding assay (1 μLM)
NC(=O)c1ccccc1-c1ccc(CN2CCCc3cc(C(=O)NCc4cccc(OC(F)(F)F)c4)ccc32)cc1 [Example 54, 1-((2′-carbamoyl-[1,1′-biphenyl]-4-yl)methyl)-N-(3-(trifluoromethoxy)benzyl)-1,2,3,4-tetrahydroquinoline-6-carboxamide] | +++
Cc1ccc([C@H](C)NC(=O)c2ccc3c(c2)CCCN3Cc2cccc(-c3ccccc3C(N)=O)c2F)cc1F [Example 133, (S)-1-((2′-carbamoyl-2-fluoro-[1,1′-biphenyl]-3-yl)methyl)-N-(1-(3-fluoro-4-methylphenyl)ethyl)-1,2,3,4-tetrahydroquinoline-6-carboxamide] | +++
Cc1cc(F)ccc1[C@H](C)NC(=O)c1ccc2c(c1)CCCN2Cc1ccc(-c2ccccc2C(=O)O)cc1 [Example 4, (S)-4′-((6-((1-(4-fluoro-2-methylphenyl)ethyl)carbamoyl)-3,4-dihydroquinoline-1(2H)-yl)methyl)-[1,1′-biphenyl]-2-carboxylic acid] | +++
NC(=O)c1ccccc1-c1ccc(CN2CCCc3cc(C(=O)NCc4ccncc4)ccc32)cc1 [Example 48, 1-((2′-carbamoyl-[1,1′-biphenyl]-4-yl)methyl)-N-(pyridine-4-ylmethyl)-1,2,3,4-tetrahydroquinoline-6-carboxamide] | +
O=C(NCc1ccc(Br)cc1)c1ccc2c(c1)CCCN2Cc1ccc(-c2ccccc2C(=O)O)cc1 [Example 31, 4′-((6-((4-bromobenzyl)carbamoyl)-3,4-dihydroquinoline-1 (2H)-yl)methyl)-[1,1′-biphenyl]-2-carboxylic acid] | ++++

Results, then the molecule that gave them:

Binding assay (1 μLM) | Compound
+++ | C[C@H](NC(=O)c1ccc2c(c1)CCCN2Cc1cccc(-c2ccccc2C(N)=O)c1F)c1ccccc1 [Example 127, (S)-1-((2′-carbamoyl-2-fluoro-[1,1′-biphenyl]-3-yl)methyl)-N-(1-phenylethyl)-1,2,3,4-tetrahydroquinoline-6-carboxamide]
+++ | C[C@H](NC(=O)c1ccc2c(c1)CCCN2Cc1ccc(-c2ccccc2C(=O)O)cc1F)c1ccc([N+](=O)[O-])cc1 [Example 109, (S)-3′-fluoro-4′-((6-((1-(4-nitrophenyl)ethyl)carbamoyl)-3,4-dihydroquinoline-1(2H)-yl)methyl)-[1,1′-biphenyl]-2-caboxylic acid]
++++ | O=C(NCc1ccccc1)c1ccc2c(c1)CCCN2Cc1ccc(-c2ccccc2C(=O)O)cc1 [Example 28, 4′-((6-(benzylcarbamoyl)-3,4-dihydroquinoline-1(2H)-yl)methyl)-[1,1′-biphenyl]-2-carboxylic acid]
+++ | C[C@H](NC(=O)c1ccc2c(c1)CCCN2Cc1ccc(-c2ccccc2C(N)=O)cc1)c1cccc(F)c1 [Example 45, (S)-1-((2′-carbamoyl-[1,1′-biphenyl]-4-yl)methyl)-N-(1-(3-fluorophenyl)ethyl)-1,2,3,4-tetrahydroquinoline-6-carboxamide]
+++ | C[C@H](NC(=O)c1ccc2c(c1)OCCN2Cc1ccc(-c2ccccc2C(=O)O)cc1)c1ccc(OC(F)(F)F)cc1 [Example 75, (S)-4′-((7-((1-(4-(trifluoromethoxy)phenyl)ethyl)carbamoyl)-2H-benzo[b][1,4]oxazine-4(3H)-yl)methyl)-[1,1′-biphenyl]-2-carboxylic acid]
++ | C[C@H](NC(=O)c1ccc2c(c1)OCCN2Cc1ccccc1-c1ccc(C(=O)O)cc1)c1ccccc1 [Example 142, (S)-2′-((7-((1-phenylethyl)carbamoyl)-2H-benzo[b][1,4]oxazine-4(3H)-yl)methyl)-[1,1′-biphenyl]-4-carboxylic acid]
+ | C[C@H](NC(=O)c1ccc2c(c1)OCCN2Cc1ccc(-c2ccccc2C(=O)O)cc1)c1ccc(F)cc1 [Example 63, (S)-4′-((7-((1-(4-fluorophenyl)ethyl)carbamoyl)-2H-benzo[b][1,4]oxazine-4(3H)-yl)methyl)-[1,1′-biphenyl]-2-carboxylic acid]
